ChEMBL document CHEMBL5046270, “A Selective and Orally Bioavailable Quinoline-6-Carbonitrile-Based Inhibitor of CDK8/19 Mediator Kinase with Tumor-Enriched Pharmacokinetics” (J Med Chem, 2022)
pIC50: −log10 of the molar value. Calls of active or inactive are those of the source. No cut-off for these calls is given here.

Key:
[1] = Inhibition of NF kappa B dependent CDK8/CDK19 in HEK293 cell incubated for 3 hrs in presence of TNF-alpha by Spectra max microtitre plate reader; type: cell-based; conditions: Homo sapiens, HEK293, 3 h
CDK8/Cyclin C = CDK8/Cyclin C (Homo sapiens, UniProt P49336); assay: Inhibition of kinase tracer 236 binding to His tagged recombinant human CDK8/cyclin C incubated for 60 min FRET based LanthaScreen Eu-Kinase binding assay; type: protein-complex assay
Chain of CDK8/Cyclin C (P49336 whole entry): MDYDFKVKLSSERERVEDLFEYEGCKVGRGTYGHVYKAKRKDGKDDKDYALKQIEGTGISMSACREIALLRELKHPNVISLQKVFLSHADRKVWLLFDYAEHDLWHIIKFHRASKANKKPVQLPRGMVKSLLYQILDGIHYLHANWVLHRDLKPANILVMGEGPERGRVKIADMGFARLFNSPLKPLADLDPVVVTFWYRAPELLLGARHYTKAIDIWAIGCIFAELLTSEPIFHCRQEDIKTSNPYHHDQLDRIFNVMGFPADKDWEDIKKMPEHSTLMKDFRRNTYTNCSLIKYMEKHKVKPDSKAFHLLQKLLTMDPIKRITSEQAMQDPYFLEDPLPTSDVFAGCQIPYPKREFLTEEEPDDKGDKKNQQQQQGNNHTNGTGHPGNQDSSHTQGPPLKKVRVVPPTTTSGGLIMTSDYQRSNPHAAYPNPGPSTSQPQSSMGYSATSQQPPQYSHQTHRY
Chain of CDK8/Cyclin C (P24863 whole entry, further chain): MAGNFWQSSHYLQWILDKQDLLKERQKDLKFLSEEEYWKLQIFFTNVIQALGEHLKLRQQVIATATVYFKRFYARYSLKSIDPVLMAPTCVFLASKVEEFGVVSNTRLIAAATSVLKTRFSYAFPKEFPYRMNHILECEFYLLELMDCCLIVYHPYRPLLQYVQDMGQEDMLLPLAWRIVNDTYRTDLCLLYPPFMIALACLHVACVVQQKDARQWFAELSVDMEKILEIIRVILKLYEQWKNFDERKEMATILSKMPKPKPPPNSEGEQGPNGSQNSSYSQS

[2] = Inhibition of CDK8/CDK19 in MV4-11 cells and measured after 7 days by Spectra max iD5 microplate reader; type: cell-based, Homo sapiens
[3] = target: T1, CDK8/Cyclin C (Homo sapiens) (UniProt P49336+P24863); assay: Binding affinity to kinase tracer 236 binding to His tagged recombinant human CDK8/cyclinC assessed as rate constant (koff) by TR FRET based assay; type: protein-complex assay
[4] = target: T1, CDK8/Cyclin C (Homo sapiens); assay: Binding affinity to kinase tracer 236 binding to His tagged recombinant human CDK8/cyclinC assessed as half life by TR FRET based assay; type: protein-complex assay
[5] = target: T2, Cyclin-C/Cyclin-dependent kinase 19 (Homo sapiens) (UniProt Q9BWU1+P24863); assay: Binding affinity to recombinant human CDK19/cyclinC assessed as half life by TR FRET based assay; type: protein-complex assay
HEK293 [6] = assay: Downregulation of CDK8/19 in HEK293 cells assessed as reversal of mRNA expression level in KCTD12 gene at 1 uM for 3 hr pretreatment and measured after 3 hr post wash-off by qt-PCR analysis; type: functional, cell-based; conditions: Homo sapiens, time 6.0 hrs
[7] = target: T1, CDK8/Cyclin C (Homo sapiens); assay: Binding affinity to kinase tracer 236 binding to His tagged recombinant human CDK8/cyclinC assessed as mean residence time by TR FRET based assay; type: protein-complex assay
[8] = target: T2, Cyclin-C/Cyclin-dependent kinase 19 (Homo sapiens); assay: Binding affinity to recombinant human CDK19/cyclinC assessed as mean residence time by TR FRET based assay; type: protein-complex assay
[9] = target: T2, Cyclin-C/Cyclin-dependent kinase 19 (Homo sapiens); assay: Binding affinity to recombinant human CDK19/cyclinC assessed as rate constant (koff) by TR FRET based assay; type: protein-complex assay
[10] = target: T1, CDK8/Cyclin C (Homo sapiens); assay: Binding affinity to kinase tracer 236 binding to His tagged recombinant human CDK8/cyclinC assessed as rate constant (kon) by TR FRET based assay; type: protein-complex assay
HEK293 [11] = assay: Downregulation of CDK8/19 in HEK293 cells assessed as reversal of mRNA expression level in MYC gene at 1 uM for 3 hr pretreatment and measured after 3 hr post wash-off by qt-PCR analysis; type: functional, cell-based; conditions: Homo sapiens, time 6.0 hrs
[12] = Metabolic stability in human hepatocyte assessed as intrinsic clearance at 2 uM measured per 10^6 by LC-MS/MS analysis; type: ADME, cell-based; conditions: hepatocytes
[13] = target: T2, Cyclin-C/Cyclin-dependent kinase 19 (Homo sapiens); assay: Binding affinity to recombinant human CDK19/cyclinC assessed as rate constant (kon) by TR FRET based assay; type: protein-complex assay

pIC50 [1]	pIC50 (CDK8/Cyclin C)	pIC50 [2]	Compound	also measured
< 5.30	6.74	–	Brc1ccc2nccc(NCCc3ccccc3)c2c1	–
6.93	8.04	6.53	CN(CCCN)C(=O)c1ccc2cc(CCNc3ccnc4ccc(C#N)cc34)ccc2c1	–
6.61	8.34	6.57	N#Cc1ccc2nccc(NCCc3ccc4cc(C(=O)N5CCS(=N)(=O)CC5)ccc4c3)c2c1	–
< 5.30	7.36	–	Clc1ccc2nccc(NCCc3ccccc3)c2c1	–
< 5.30	< 6.00	–	Nc1ccc2nccc(NCCc3ccccc3)c2c1	–
6.68	8.03	6.76	CN(CCCNC(=O)OC(C)(C)C)C(=O)c1ccc2cc(CCNc3ccnc4ccc(C#N)cc34)ccc2c1	–
6.46	7.46	6.00	N#Cc1ccc2ncnc(NCCc3ccccc3)c2c1	–
6.74	7.92	6.53	CC(=O)N1CCN(C(=O)c2ccc3cc(CCNc4ccnc5ccc(C#N)cc45)ccc3c2)CC1	–
6.06	8.19	6.52	N#Cc1ccc2nccc(NCCc3ccc4cc(C(=O)N5CCN(CCCN)CC5)ccc4c3)c2c1	–
< 5.30	< 6.00	–	CNC(=O)c1ccc2nccc(NCCc3ccccc3)c2c1	–
–	–	–	CN1CCN(C(=O)c2ccc3cc(CCNc4ncnc5ccc(C#N)cc45)ccc3c2)CC1 [SENEXIN B]	K [3]: 0.00325 s⁻¹; T1/2 [4]: 3.55 min; T1/2 [5]: 1.84 min; Activity (HEK293 [6]): inactive; MRT [7]: 5.13 min; MRT [8]: 2.65 min; K [9]: 0.00628 s⁻¹; K [10]: 1.65 10^6/M/s; Activity (HEK293 [11]): inactive; CLH [12]: 0.0198 mL/min; K [13]: 2.13 10^6/M/s
6.80	8.24	6.65	N#Cc1ccc2nccc(NCCc3ccc4cc(C(=O)N5CC[S+]([O-])CC5)ccc4c3)c2c1	–
6.86	7.72	6.68	CC(C)(C)OC(=O)N1CCN(C(=O)c2ccc3cc(CCNc4ccnc5ccc(C#N)cc45)ccc3c2)CC1	–
< 5.30	< 6.00	–	NC(=O)c1ccc2nccc(NCCc3ccccc3)c2c1	–
7.09	8.09	6.78	CC(C)(C)OC(=O)NCCCN1CCN(C(=O)c2ccc3cc(CCNc4ccnc5ccc(C#N)cc45)ccc3c2)CC1	–
< 5.30	< 6.00	–	c1ccc(CCNc2ccnc3ccccc23)cc1	–
< 5.30	6.67	–	Ic1ccc2nccc(NCCc3ccccc3)c2c1	–
6.86	8.04	7.03	N#Cc1ccc2nccc(NCCc3ccc4cc(C(=O)N5CCSCC5)ccc4c3)c2c1	–
< 5.30	6.45	–	FC(F)(F)c1ccc2nccc(NCCc3ccccc3)c2c1	–
